According to ChEMBL document CHEMBL1795238, “Structure-brain exposure relationships in rat and human using a novel data set of unbound drug concentrations in brain interstitial and cerebrospinal fluids” (J Med Chem, 2009):

Legend:
[1] = in vitro; conditions: Sprague-Dawley, rat, plasma, iv, 2 (umol/kg)/hr
[2] = in vivo; conditions: Sprague-Dawley, rat, iv, 2 (umol/kg)/hr
[3] = in vivo; conditions: Sprague-Dawley, rat, iv, 2 (umol/kg)/hr; remark: listed apart in the source
[4] = system: Plasma; conditions: rat, iv, 4 h, BLD = below limit of detection
[5] = system: Plasma; conditions: rat, iv, 4 h
[6] = system: Brain; conditions: rat, in vivo, iv, 4 h
[7] = clinical; conditions: human, CSF and plasma
Description: Unbound CSF to plasma concentration ratio in human

[8] = in vivo; conditions: Sprague-Dawley, rat, iv, 2 (umol/kg)/hr; remark: listed apart in the source
[9] = rat, brain, iv, 4 h
[10] = Sprague-Dawley, rat, iv, 2 (umol/kg)/hr, 4 h
[11] = system: Plasma; conditions: rat, iv, 4 h; remark: listed apart in the source

| Compound | fraction unbound at 4 h [1] | Kp uu at 4 h ([2]; brain and plasma) | Kp at 4 h ([3]; brain) | K(p,uu,CSF) [4] | Cp(f) [5] | Vdu [6] | Kp uu [7] | Kp uu at 4 h ([2]; brain) | Kp uu at 4 h ([8]; csf) | Kp uu at 4 h ([8]; CSF and plasma) | Kp at 4 h ([3]; brain and plasma) | BPR ([9]; Sprague-Dawley, 2 (umol/kg)/hr) | BPR [9] | K(p,uu,brain) [10] | Fu [11] |
| --- | --- | --- | --- | --- | --- | --- | --- | --- | --- | --- | --- | --- | --- | --- | --- |
| CC(=O)O[C@H]1C(=O)[C@@]2(C)[C@H]([C@H](OC(=O)c3ccccc3)[C@]3(O)C[C@H](OC(=O)[C@H](O)[C@@H](NC(=O)c4ccccc4)c4ccccc4)C(C)=C1C3(C)C)[C@]1(OC(C)=O)CO[C@@H]1C[C@@H]2O [PACLITAXEL] | 0.05 | 0.007 | 0.28 | BLD | 16 nM | 769 mL |  |  |  |  |  |  |  |  |  |
| O=C(O)c1ccccc1O [SALICYLIC ACID] | 0.28 |  | 0.05 |  | 5600 nM | 1 mL | 0.19 | 0.19 | 0.16 |  |  |  |  |  |  |
| Nc1c2c(nc3ccccc13)CCCC2 [TACRINE] | 0.55 |  | 9.56 |  | 120 nM | 22 mL | 0.74 | 0.78 | 0.67 |  |  |  |  |  |  |
| CN1CC[C@]23c4c5ccc(O[C@@H]6O[C@H](C(=O)O)[C@@H](O)[C@H](O)[C@H]6O)c4O[C@H]2[C@@H](O)C=C[C@H]3[C@H]1C5 [MORPHINE 3-GLUCURONIDE] | 1 | 0.011 |  |  | 2700 nM | 0.6 mL | 0.081 |  |  | 0.049 | 0.007 |  |  |  |  |
| CC(C)NCC(O)COc1cccc2ccccc12 (stereo not given) [PROPRANOLOL] | 0.09 | 0.61 |  |  | 51 nM | 118 mL | 0.42 |  |  | 0.49 | 6.59 |  |  |  |  |
| Nc1nnc(-c2cccc(Cl)c2Cl)c(N)n1 [LAMOTRIGINE] | 0.51 |  |  |  | 1800 nM | 4.6 mL | 1.1 | 0.88 | 0.86 |  |  | 2.02 |  |  |  |
| NCC(CC(=O)O)c1ccc(Cl)cc1 (stereo not given) [BACLOFEN] | 1 | 0.02 |  |  | 4200 nM | 1.7 mL | 0.17 |  |  | 0.027 | 0.03 |  |  |  |  |
| C[C@H]1COc2c(N3CCN(C)CC3)c(F)cc3c(=O)c(C(=O)O)cn1c23.C[C@H]1COc2c(N3CCN(C)CC3)c(F)cc3c(=O)c(C(=O)O)cn1c23.O [LEVOFLOXACIN] | 0.82 | 0.12 |  |  | 590 nM | 1.7 mL | 0.18 |  |  | 0.19 | 0.17 |  |  |  |  |
| CC(C)Nc1cccnc1N1CCN(C(=O)c2cc3cc(NS(C)(=O)=O)ccc3[nH]2)CC1 [DELAVIRDINE] | 0.016 |  | 0.03 |  | 17 nM | 40 mL | 0.23 | 0.043 | 0.051 |  |  |  |  |  |  |
| CN1CC[C@]23c4c5ccc(O)c4O[C@H]2[C@@H](O[C@@H]2O[C@H](C(=O)O)[C@@H](O)[C@H](O)[C@H]2O)C=C[C@H]3[C@H]1C5 [MORPHINE GLUCURONIDE] | 0.98 | 0.008 |  |  | 2100 nM | 0.99 mL | 0.1 |  |  | 0.017 | 0.008 |  |  |  |  |
| Cc1c(O)cccc1C(=O)N[C@@H](CSc1ccccc1)[C@H](O)CN1C[C@H]2CCCC[C@H]2C[C@H]1C(=O)NC(C)(C)C |  | 0.019 |  |  | 1.9 nM | 860 mL | 0.045 |  |  | 0.067 |  |  | 0.04 |  |  |
| COc1ccc2c3c1O[C@H]1[C@@H](O)C=C[C@H]4[C@@H](C2)N(C)CC[C@@]341 [CODEINE] | 0.95 |  | 2.7 |  | 210 nM | 3.2 mL | 0.79 | 0.89 | 0.54 |  |  |  |  |  |  |
| NCC1(CC(=O)O)CCCCC1 [GABAPENTIN] | 1 | 0.14 |  |  | 5200 nM | 4.6 mL | 0.16 |  |  | 0.067 | 0.64 |  |  |  |  |
| CC(NC(C)(C)C)C(=O)c1cccc(Cl)c1 (stereo not given) [BUPROPION] | 0.31 | 2 |  |  | 79 nM | 16 mL | 2 |  |  | 0.49 | 9.78 |  |  |  |  |
| CCn1cc(C(=O)O)c(=O)c2cc(F)c(N3CCNCC3)cc21 [NORFLOXACIN] | 0.87 |  | 0.07 |  | 700 nM | 2.9 mL | 0.11 | 0.028 | 0.018 |  |  |  |  |  |  |
| CC1(C)O[C@@H]2[C@@H](CO[C@@]3(COS(N)(=O)=O)OC(C)(C)O[C@@H]23)O1 [TOPIRAMATE] | 0.79 | 0.33 |  |  | 3400 nM | 3.2 mL | 1 |  |  | 0.63 | 0.84 |  |  |  |  |
| COc1cccc(C2(O)CCCCC2CN(C)C)c1 (stereo not given) [TRAMADOL] | 0.85 |  | 5.29 |  | 300 nM | 4.2 mL | 1.44 | 1.46 | 0.71 |  |  |  |  |  |  |
| CO/N=C(\C(=O)N[C@@H]1C(=O)N2C(C(=O)O)=C(COC(C)=O)CS[C@H]12)c1csc(N)n1 [CEFOTAXIME] | 0.59 |  |  |  | 2800 nM | ND(Unstable) | 0.17 |  | 0.007 |  |  | ND(Unstable) |  | ND(Unstable) |  |
| CN(Cc1cnc2nc(N)nc(N)c2n1)c1ccc(C(=O)N[C@@H](CCC(=O)O)C(=O)O)cc1 [METHOTREXATE] | 1 |  | 0.004 |  | 2900 nM | 0.68 mL | 0.062 | 0.006 | 0.007 |  |  |  |  |  |  |
| CO[C@@]1(NC(=O)C(C(=O)O)c2ccc(O)cc2)C(=O)N2C(C(=O)O)=C(CSc3nnnn3C)CO[C@@H]21 (stereo not given in full) [MOXALACTAM] | 0.32 |  | 0.003 |  | 3800 nM | 0.57 mL | 0.41 | 0.019 | 0.02 |  |  |  |  |  |  |
| CSc1ccc2c(c1)N(CCC1CCCCN1C)c1ccccc1S2 (stereo not given) [THIORIDAZINE] |  |  | 3.75 |  | 1.3 nM | 3333 mL | 1.4 | 0.45 | 0.21 |  |  |  |  |  | 0.002 |
